Consider six molecules from patent US8343475B2, “Small cationic antimicrobial peptides” (priority 2006, dated 2013).

Values after ≈ are worked out from the molar mass of the structure shown. Like-named read-outs stand apart in the source and are kept apart here. Residues, ends and D or L forms follow the SMILES beside them.

Holding throughout (assay type): cell-based
The subject of test [1] is clinical isolate of Staphylococcus epidermidis. In short, it runs like this:
(§1)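 No-growth endpoint after overnight culture at 37° C in Mueller Hinton broth. Inoculum: 2-7×10^5 CFU/ml. Peptide diluent: 0.01% acetic acid, 0.2% BSA.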

Test [2] relates to Staphylococcus aureus ATCC25923. Summed up: as §1
For test [3], the system named is Enterococcus faecalis ATCC29212. In short, it runs like this: as §1
The subject of test [4] is wild-type Salmonella enterica ssp. typhimurium. Summed up: as §1
In test [5] the test system is lab isolate of Candida albicans. Summed up:
as §1

The subject of test [6] is Escherichia coli UB1005. In short, it runs like this: as §1
Test [7] has as its system Pseudomonas aeruginosa PAO1 strain H103. In short, it runs like this: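 Modified broth microdilution MIC in Mueller Hinton medium, peptides diluted in 0.01% acetic acid/0.2% BSA, polypropylene plates. Inoculum 2-7×10^5 CFU/ml, overnight at 37 °C; MIC is the lowest concentration with no visible growth.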
Where [8] appears, read: indolicidin substitution variants (Table 4).

Regarding `CC[C@H](C)[C@H](NC(=O)[C@@H](N)CCCCN)C(=O)N[C@@H](Cc1c[nH]c2ccccc12)C(=O)N[C@H](C(=O)N[C@@H](CCCNC(=N)N)C(=O)N[C@@H](Cc1c[nH]c2ccccc12)C(=O)N[C@@H](CCCCN)C(N)=O)C(C)C` [HH17, KIWVRWK-NH2] (H-KIWVRWK-NH2), the “MIC S. epi.” value in test [1] (clinical isolate of) is greater than 50 µg/mL. In addition, the “MIC S. aureus” value in test [2] (ATCC25923) is greater than 50 µg/mL. The “MIC E. faecalis” value in test [3] (ATCC29212) was greater than 50 µg/mL. Further, the “MIC S. typhi” value in test [4] is greater than 50 µg/mL. Further, the “MIC C. albicans” value in test [5] (lab isolate of) is greater than 50 µg/mL. Also, the “MIC E. coli” value in test [6] (UB1005) was 50 µg/mL (≈ 49.3 µM). In test [7] (PAO1), the “MIC P. aerug” value was greater than 50 µg/mL.
As to `CC[C@H](C)[C@H](N)C(=O)N[C@@H](CC(C)C)C(=O)N1CCC[C@H]1C(=O)N[C@@H](Cc1c[nH]c2ccccc12)C(=O)N[C@@H](CCCCN)C(=O)N[C@@H](CCCCN)C(=O)N1CCC[C@H]1C(=O)N[C@@H](Cc1c[nH]c2ccccc12)C(=O)N[C@@H](Cc1c[nH]c2ccccc12)C(=O)N1CCC[C@H]1C(=O)N[C@@H](Cc1c[nH]c2ccccc12)C(=O)N[C@@H](CCCNC(=N)N)C(=O)N[C@@H](CCCNC(=N)N)C(N)=O` [HH113, ILPWKKPWWPWRR] (H-ILPWKKPWWPWRR-NH2; N-terminus assumed), the “MIC S. epi.” value in test [1] (clinical isolate of) was determined as 8 µg/mL (≈ 4.33 µM). Also, in test [2] (ATCC25923), the “MIC S. aureus” value was found to be 31 µg/mL (≈ 16.8 µM). In addition, in test [3] (ATCC29212), the “MIC E. faecalis” value worked out at 125 µg/mL (≈ 67.6 µM). The “MIC S. typhi” value in test [4] amounted to 62 µg/mL (≈ 33.5 µM). Also, the “MIC C. albicans” value in test [5] (lab isolate of) amounted to 62 µg/mL (≈ 33.5 µM). Also, the “MIC E. coli” value in test [6] (setting [8]) came to 31 µg/mL (≈ 16.8 µM). For the same molecule, the “MIC P. aerug” value in test [7] (PAO1) is 31 µg/mL (≈ 16.8 µM).
Take `CC[C@H](C)[C@H](N)C(=O)N[C@@H](CC(C)C)C(=O)N[C@@H](CCCCN)C(=O)N[C@@H](Cc1c[nH]c2ccccc12)C(=O)N[C@@H](CCCCN)C(=O)N[C@@H](Cc1c[nH]c2ccccc12)C(=O)N1CCC[C@H]1C(=O)N[C@@H](Cc1c[nH]c2ccccc12)C(=O)N[C@@H](Cc1c[nH]c2ccccc12)C(=O)N[C@@H](CCCCN)C(=O)N[C@@H](Cc1c[nH]c2ccccc12)C(=O)N[C@@H](CCCNC(=N)N)C(=O)N[C@@H](CCCNC(=N)N)C(N)=O` [HH970, ILKWKWPWWKWRR] (H-ILKWKWPWWKWRR-NH2; N-terminus assumed): the “MIC S. epi.” value in test [1] (clinical isolate of) stood at 2 µg/mL (≈ 1.02 µM). Moreover, the “MIC S. aureus” value in test [2] (ATCC25923) is 8 µg/mL (≈ 4.06 µM). Besides, the “MIC E. faecalis” value in test [3] (ATCC29212) came out at 31 µg/mL (≈ 15.7 µM). Also, in test [4], the “MIC S. typhi” value amounted to 16 µg/mL (≈ 8.13 µM). Besides, the “MIC C. albicans” value in test [5] (lab isolate of) came to 16 µg/mL (≈ 8.13 µM). The “MIC E. coli” value in test [6] (setting [8]) is 8 µg/mL (≈ 4.06 µM). In addition, the “MIC P. aerug” value in test [7] (PAO1) was 16 µg/mL (≈ 8.13 µM).
As for `CC[C@H](C)[C@H](N)C(=O)N[C@@H](CC(C)C)C(=O)N1CCC[C@H]1C(=O)N[C@@H](Cc1c[nH]c2ccccc12)C(=O)N[C@@H](CCCCN)C(=O)N[C@@H](Cc1c[nH]c2ccccc12)C(=O)N[C@@H](CCCNC(=N)N)C(=O)N[C@@H](Cc1c[nH]c2ccccc12)C(=O)N[C@@H](Cc1c[nH]c2ccccc12)C(=O)N[C@@H](CCCCN)C(=O)N[C@@H](Cc1c[nH]c2ccccc12)C(=O)N[C@@H](CCCNC(=N)N)C(=O)N[C@@H](CCCNC(=N)N)C(N)=O` [HH971, ILPWKWRWWKWRR] (H-ILPWKWRWWKWRR-NH2; N-terminus assumed), the “MIC S. epi.” value in test [1] (clinical isolate of) was determined as 2 µg/mL (≈ 1 µM). In addition, the “MIC S. aureus” value in test [2] (ATCC25923) came to 8 µg/mL (≈ 4.01 µM). For the same molecule, the “MIC E. faecalis” value in test [3] (ATCC29212) amounted to 31 µg/mL (≈ 15.5 µM). The “MIC S. typhi” value in test [4] came out at 16 µg/mL (≈ 8.01 µM). Besides, the “MIC C. albicans” value in test [5] (lab isolate of) was found to be 8 µg/mL (≈ 4.01 µM). The “MIC E. coli” value in test [6] (setting [8]) was 8 µg/mL (≈ 4.01 µM). In addition, the “MIC P. aerug” value in test [7] (PAO1) is 16 µg/mL (≈ 8.01 µM).
With `CC(C)C[C@H](NC(=O)[C@@H](N)Cc1ccccc1)C(=O)N1CCC[C@H]1C(=O)N[C@@H](CCCCN)C(=O)N[C@@H](CCCCN)C(=O)N[C@@H](Cc1ccccc1)C(=O)N[C@@H](CCCNC(=N)N)C(=O)N[C@@H](Cc1c[nH]c2ccccc12)C(=O)N[C@@H](Cc1c[nH]c2ccccc12)C(=O)N[C@@H](CCCCN)C(=O)N[C@@H](Cc1ccc(O)cc1)C(=O)N[C@@H](CCCNC(=N)N)C(=O)N[C@@H](CCCCN)C(N)=O` [HH972, FLPKKFRWWKYRK] (H-FLPKKFRWWKYRK-NH2; N-terminus assumed), the “MIC S. epi.” value in test [1] (clinical isolate of) came out at 8 µg/mL (≈ 4.25 µM). Further, the “MIC S. aureus” value in test [2] (ATCC25923) came to 31 µg/mL (≈ 16.5 µM). In addition, in test [3] (ATCC29212), the “MIC E. faecalis” value is greater than 125 µg/mL. The “MIC S. typhi” value in test [4] stood at 31 µg/mL (≈ 16.5 µM). The “MIC C. albicans” value in test [5] (lab isolate of) is 31 µg/mL (≈ 16.5 µM). The “MIC E. coli” value in test [6] (setting [8]) came to 16 µg/mL (≈ 8.5 µM). Further, the “MIC P. aerug” value in test [7] (PAO1) turned out to be 31 µg/mL (≈ 16.5 µM).
`CC[C@H](C)[C@H](N)C(=O)N[C@@H](CC(C)C)C(=O)N1CCC[C@H]1C(=O)N[C@@H](Cc1c[nH]c2ccccc12)C(=O)N[C@@H](CCCCN)C(=O)N[C@@H](Cc1c[nH]c2ccccc12)C(=O)N1CCC[C@H]1C(=O)N[C@@H](Cc1c[nH]c2ccccc12)C(=O)N[C@@H](Cc1c[nH]c2ccccc12)C(=O)N1CCC[C@H]1C(=O)N[C@@H](Cc1c[nH]c2ccccc12)C(=O)N[C@@H](CCCNC(=N)N)C(=O)N[C@@H](CCCNC(=N)N)C(N)=O` [Indolicidin, ILPWKWPWWPWRR-NH2, reference compound]: in test [1] (setting [8]), the “MIC S. epi.” value worked out at 8 µg/mL (≈ 4.2 µM). Further, the “MIC S. aureus” value in test [2] (setting [8]) was 16 µg/mL (≈ 8.39 µM). The “MIC E. faecalis” value in test [3] (setting [8]) amounted to 31 µg/mL (≈ 16.3 µM). Moreover, in test [4], the “MIC S. typhi” value was 31 µg/mL (≈ 16.3 µM). Also, the “MIC C. albicans” value in test [5] (setting [8]) was 16 µg/mL (≈ 8.39 µM). The “MIC E. coli” value in test [6] (setting [8]) came to 8 µg/mL (≈ 4.2 µM). For the same molecule, the “MIC P. aerug” value in test [7] (setting [8]) is 62 µg/mL (≈ 32.5 µM).
